# Source: patent publication US20250032409A1, “TREATMENT OF LOW-GRADE INTERMEDIATE-RISK NON-MUSCLE-INVASIVE BLADDER CANCER WITH A THERMALLY GELLING PHARMACEUTICAL COMPOSITION CONTAINING MITOMYCIN” (priority 2023, published 2025)
# What was measured:
# [1] = OPTIMA II: mitomycin plasma concentrations; format: in vivo, human
# LG NMIBC = settings: dose-intensive administration as primary therapy for LG NMIBC; cited from earlier work
# [2] = human, plasma, other: instillation, read-out: Mitomycin plasma concentration, mean (standard deviation)
smiles,measurement,setting,value
CO[C@@]12[C@H](COC(N)=O)C3=C(C(=O)C(C)=C(N)C3=O)N1C[C@@H]1N[C@@H]12 [Mitomycin],"Mitomycin plasma concentration, mean (standard deviation)","[1]; Pre-instillation, 6 patients, UGN-102",0 ng/mL
same,AUC,"[1]; human, plasma, other: instillation, read-out: Concentration-time Curve (AUC) - Mean (standard deviation)",5.69 ng·h/mL
same,concentration at 0.5 h,[1]; [2],0.75 ng/mL
same,concentration at 1 h,[1]; [2],0.6 ng/mL
same,concentration at 2 h,[1]; [2],0.34 ng/mL
same,concentration at 3 h,[1]; [2],1.88 ng/mL
same,concentration at 4 h,[1]; [2],1.93 ng/mL
same,concentration at 5 h,[1]; [2],0.57 ng/mL
same,concentration at 6 h,[1]; [2],0.32 ng/mL
same,Cmax,"[1]; human, plasma, other: intravesical instillation (via urethral catheter), read-out: Concentration (Cmax)",2.27 ng/mL
same,CR rates,LG NMIBC,50-60%
